Laboratory results published in publication PMC2695604 (2009).

Molecular target: isoleucyl-tRNA synthetase (IleRS) (Escherichia coli, UniProt P00956)
Test: affinity labeling with saturation kinetics of inactivation
Assay type: biochemical

Sequence of isoleucyl-tRNA synthetase (IleRS) (P00956 2-938): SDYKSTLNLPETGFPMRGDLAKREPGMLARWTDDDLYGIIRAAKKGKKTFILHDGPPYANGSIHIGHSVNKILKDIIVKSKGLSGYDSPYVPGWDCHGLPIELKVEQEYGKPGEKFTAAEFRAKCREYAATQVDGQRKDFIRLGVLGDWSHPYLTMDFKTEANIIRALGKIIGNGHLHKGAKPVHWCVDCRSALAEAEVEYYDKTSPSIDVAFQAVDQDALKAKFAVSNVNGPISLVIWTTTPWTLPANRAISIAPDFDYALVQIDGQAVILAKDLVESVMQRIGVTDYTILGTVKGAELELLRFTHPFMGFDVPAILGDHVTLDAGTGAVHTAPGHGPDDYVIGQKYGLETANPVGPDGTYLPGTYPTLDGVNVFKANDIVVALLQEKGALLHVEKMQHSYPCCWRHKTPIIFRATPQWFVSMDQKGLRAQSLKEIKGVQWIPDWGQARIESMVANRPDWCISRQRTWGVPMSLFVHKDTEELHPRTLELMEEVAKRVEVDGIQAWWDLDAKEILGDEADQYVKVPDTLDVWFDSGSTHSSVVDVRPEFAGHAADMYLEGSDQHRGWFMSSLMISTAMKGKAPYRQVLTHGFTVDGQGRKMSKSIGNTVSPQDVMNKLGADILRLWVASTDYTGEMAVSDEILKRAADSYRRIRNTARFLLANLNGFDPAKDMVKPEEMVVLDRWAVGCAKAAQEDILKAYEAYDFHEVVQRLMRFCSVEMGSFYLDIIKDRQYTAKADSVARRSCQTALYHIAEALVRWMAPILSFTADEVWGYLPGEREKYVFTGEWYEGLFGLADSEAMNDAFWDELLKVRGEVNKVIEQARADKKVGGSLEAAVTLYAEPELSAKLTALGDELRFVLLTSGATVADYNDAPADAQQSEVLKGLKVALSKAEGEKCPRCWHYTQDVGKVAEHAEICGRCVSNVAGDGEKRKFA

CC[C@H](C)[C@H](N)C(=O)CBr [IBMK, L-isoleucine bromomethyl ketone]
KI (inactivation): ~100 µM
